# Target: Trace amine-associated receptor 1 (Mus musculus, UniProt Q923Y8)
# Experiment: Radioligand Binding Assay : HEK-293 cells stably expressing mouse TAAR1 were maintained at 37° C. and 5% CO2 in DMEM high glucose medium, containing fetal calf serum (10%, heat inactivated for 30 min at 56° C.), penicillin/streptomycin (1%), and 375 μg/ml geneticin (Gibco). Cells were released from culture flasks using trypsin/EDTA, harvested, washed twice with ice-cold PBS (without Ca2+ and Mg2+), pelleted at 1,000 rpm for 5 min at 4° C., frozen and stored at −80° C. Frozen pellets were suspended in 20 ml HEPES-NaOH (20 mM, pH 7.4) containing 10 mM EDTA and homogenized with a Polytron (PT 6000, Kinematica) at 14′000 rpm for 20 s. The homogenate was centrifuged at 48,000×g for 30 min at 4° C. Subsequently, the supernatant was removed and discarded, and the pellet resuspended in 20 ml HEPES-NaOH (20 mM, pH 7.4) containing 0.1 mM EDTA using the Polytron (20 s at 14′000 rpm). This procedure was repeated and the final pellet resuspended in HEPES-NaOH containing 0.1 mM EDTA and homogenized using the Polytron. Typically, aliquots of 2 ml membrane portions were stored at −80° C. With each new membrane batch the dissociation constant (Kd) was determined via a saturation curve.
# Chain of Trace amine-associated receptor 1 (Q923Y8 whole entry): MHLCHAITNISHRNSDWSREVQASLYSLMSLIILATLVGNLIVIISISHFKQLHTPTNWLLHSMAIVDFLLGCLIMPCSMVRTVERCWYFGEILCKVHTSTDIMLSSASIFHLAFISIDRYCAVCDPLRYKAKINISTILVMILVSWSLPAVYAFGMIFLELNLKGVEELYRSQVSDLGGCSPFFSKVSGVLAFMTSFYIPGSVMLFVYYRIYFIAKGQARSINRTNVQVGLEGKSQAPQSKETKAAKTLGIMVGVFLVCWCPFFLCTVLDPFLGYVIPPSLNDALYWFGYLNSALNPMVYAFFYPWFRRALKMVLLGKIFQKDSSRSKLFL
smiles,measurement,value
CCCc1n[nH]c(C(=O)Nc2ccc(C3CNCCO3)nc2)c1Cl (racemic),Ki,5.6 nM

# Reference: ChEMBL document CHEMBL5726672, “Morpholin-pyridine derivatives” (2017)
